# Data reported in patent US8318504B2, “MRP2 efflux pathway prognostic method” (priority 2009, dated 2012).
# Experiments:
# [1] = biological target: T1, NTCP (Homo sapiens, UniProt Q14973); assay: Uptake of TC and CLF into CHO cells stably expressing NTCP; assay type: cell-based; settings: 45 seconds, sodium-dependent uptake rates
# T1 construct: the coding region ligated into pcDNA5/FRT; expressed in transfected cells
# T1 sequence (Q14973 1-349): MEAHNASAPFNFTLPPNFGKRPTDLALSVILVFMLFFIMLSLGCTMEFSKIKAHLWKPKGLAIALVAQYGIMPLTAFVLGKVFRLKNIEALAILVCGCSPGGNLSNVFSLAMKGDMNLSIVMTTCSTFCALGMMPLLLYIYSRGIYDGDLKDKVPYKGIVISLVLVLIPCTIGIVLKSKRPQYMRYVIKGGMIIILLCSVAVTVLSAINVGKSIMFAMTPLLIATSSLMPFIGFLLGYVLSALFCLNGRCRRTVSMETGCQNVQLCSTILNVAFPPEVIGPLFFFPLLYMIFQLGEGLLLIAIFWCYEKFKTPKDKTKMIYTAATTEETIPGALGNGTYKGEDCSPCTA
# Protocol: cDNA for human NTCP [Hagenbuch et al., J Clin Invest 1994 March; 93(3): 1326-1331] was cut with EcoRV and HindI and the coding region ligated into pcDNA5/FRT (Invitrogen, Life-Technologies, Carlsbad, Calif.). CHO FlpIn cells (Invitrogen, Life-Technologies) were transfected with the resulting construct using Lipofectamine® 2000 (Invitrogen, Life-Technologies). Stably transfected cells were selected with 550 μg Hygromycin-B in HAM-F12 medium (Gibco, Invitrogen, Life-Technologies). Transfected cells were cloned with the limiting dilution method. […] To further characterize the cloned cells, immunofluorescence localization of NTCP using a polyclonal antibody against NTCP [Kullak-Ublick G et al., Gastroenterology 1997 October; 113(4):1295-1305] was performed as described by Huber R D et al. [Am J Physiol Cell Physiol 2007 February; 292(2):[…]-[…]]. CHO cells expressing OATP1B1, OATP1B3 and OATP2B1 were described previously [Treiber et al., DMD 35:1400-1407, 2007]. For all transport experiments, cells grown on 3 cm culture dishes were cultured for 24 hours in media supplemented with 5 mmol/L sodium-butyrate to increase expression levels of transfected transporters [Palermo D P et al., J Biotechnol 1991 June; 19(1):35-47]. • Transport experiments with uptake of radioactively labeled substrates: These experiments were performed as described by Huber R D et al. […] Uptake was performed in the same buffers as for the radioactive substrates above. For visualization of CLF uptake, cells were immediately inspected with a Leica-DM-IRBE-inverted-microcope (Leica-Microsystems, Wetzlar, Germany) equipped with a Hamamatsu-ORKA-ER-camera (Hamamatsu-Photonoics, Japan). To determine uptake of CLF, cells were solubilized by the addition of 2 ml 1% (w/v) Triton-X-100. After complete solubilization, 1.5 ml was used to measure fluorescence in a Perkin-Elmer LS-5 luminescence-spectrometer set at λexe 486 nm (slit 10 nm) and λem 520 nm (slit 5 nm). Protein was determined with the bicinchoninic acid method using a kit from Interchim (Montfuçon, France). […]
# [2] = substrate: CC(CCC(=O)NC(CCCCNC(=S)Nc1ccc(-c2c3ccc(=O)cc-3oc3cc(O)ccc23)c(C(=O)O)c1)C(=O)O)C1CCC2C3C(O)CC4CC(O)CCC4(C)C3CC(O)C12C; assay: ATP-dependent transport of CLF into Sf21 membrane vesicles containing ABCC3; assay type: biochemical, human; settings: other: 30 μg total protein, presence or absence of 4 mmol/L ATP; 27.0 °C
# Protocol: (§1) The production of recombinant baculovirus was as described by de Waart et al. [Liver Int 2006 April; 26(3):362-368]. ABCC3 and ABCG2-recombinant baculovirus were a kind gift from Borst [Breedveld P. et al., Cancer Res 2004 Aug. 15; 64(16):5804-5811 and Borst P. et al., J Biol Chem 2001 Dec. 7; 276(49):46400-46407.]. ABCB11-recombinant baculovirus was a kind gift from Thompson [Thompson R J et al., Gastroenterology 2002 November; 123(5):1649-1658]. Sf21 cells grown at 27° C. were infected with ABCB11, ABCC2, ABCC3 and ABCG2-cDNA containing baculovirus. Cells were harvested at 2-4 days after infection. Membrane vesicle preparation was as described by de Waart et al. [Liver Int 2006 April; 26(3):362-368].
# (§2) Transport studies with membrane vesicles were performed using the rapid filtration technique as described by Heijn M et al. [Am J Physiol 1992 January; 262(1 Pt 1):C104-C110]. Radiolabel was measured with a scintillation counter. When CLF was used as a probe, filters were placed in a glass tube, 0.1% Triton-X-100 was added and the tubes vortexed. Samples were pipetted in 96-well plates (Kartell, Noviglio, Italy) and the amount CLF quantitated by measurement of fluorescence at λexe 485 nm and λcm 520 nm using a NovoStar (BMG-labtech, Offenburg, Germany). […]
# [3] = substrate: CC(CCC(=O)NC(CCCCNC(=S)Nc1ccc(-c2c3ccc(=O)cc-3oc3cc(O)ccc23)c(C(=O)O)c1)C(=O)O)C1CCC2C3C(O)CC4CC(O)CCC4(C)C3CC(O)C12C; assay: ATP-dependent transport of CLF into Sf21 membrane vesicles containing ABCC2; assay type: biochemical, human; settings: other: 10 μg total protein, presence or absence of 4 mmol/L ATP; 27.0 °C
# Protocol: as §1, §2
molecule,measurement,setting,value
"C[C@H](CCC(=O)NCCS(=O)(=O)O)[C@H]1CC[C@H]2[C@@H]3[C@H](O)C[C@@H]4C[C@H](O)CC[C@]4(C)[C@H]3C[C@H](O)[C@]12C [TC, taurocholate]",Vmax for sodium-dependent transport of TC,[1],6738 pmol TC/mg protein/min
same,Km,[1]; read-out: Km for sodium-dependent transport of TC,16 µM
"ABCC3 (Homo sapiens) (protein, made in house; host or cells: Sf21 insect cells, baculovirus (gift from Borst); plasma membrane vesicles) MDALCGSGELGSKFWDSNLSVHTENPDLTPCFQNSLLAWVPCIYLWVALPCYLLYLRHHCRGYIILSHLSKLKMVLGVLLWCVSWADLFYSFHGLVHGRAPAPVFFVTPLVVGVTMLLATLLIQYERLQGVQSSGVLIIFWFLCVVCAIVPFRSKILLAKAEGEISDPFRFTTFYIHFALVLSALILACFREKPPFFSAKNVDPNPYPETSAGFLSRLFFWWFTKMAIYGYRHPLEEKDLWSLKEEDRSQMVVQQLLEAWRKQEKQTARHKASAAPGKNASGEDEVLLGARPRPRKPSFLKALLATFGSSFLISACFKLIQDLLSFINPQLLSILIRFISNPMAPSWWGFLVAGLMFLCSMMQSLILQHYYHYIFVTGVKFRTGIMGVIYRKALVITNSVKRASTVGEIVNLMSVDAQRFMDLAPFLNLLWSAPLQIILAIYFLWQNLGPSVLAGVAFMVLLIPLNGAVAVKMRAFQVKQMKLKDSRIKLMSEILNGIKVLKLYAWEPSFLKQVEGIRQGELQLLRTAAYLHTTTTFTWMCSPFLVTLITLWVYVYVDPNNVLDAEKAFVSVSLFNILRLPLNMLPQLISNLTQASVSLKRIQQFLSQEELDPQSVERKTISPGYAITIHSGTFTWAQDLPPTLHSLDIQVPKGALVAVVGPVGCGKSSLVSALLGEMEKLEGKVHMKGSVAYVPQQAWIQNCTLQENVLFGKALNPKRYQQTLEACALLADLEMLPGGDQTEIGEKGINLSGGQRQRVSLARAVYSDADIFLLDDPLSAVDSHVAKHIFDHVIGPEGVLAGKTRVLVTHGISFLPQTDFIIVLADGQVSEMGPYPALLQRNGSFANFLCNYAPDEDQGHLEDSWTALEGAEDKEALLIEDTLSNHTDLTDNDPVTYVVQKQFMRQLSALSSDGEGQGRPVPRRHLGPSEKVQVTEAKADGALTQEEKAAIGTVELSVFWDYAKAVGLCTTLAICLLYVGQSAAAIGANVWLSAWTNDAMADSRQNNTSLRLGVYAALGILQGFLVMLAAMAMAAGGIQAARVLHQALLHNKIRSPQSFFDTTPSGRILNCFSKDIYVVDEVLAPVILMLLNSFFNAISTLVVIMASTPLFTVVILPLAVLYTLVQRFYAATSRQLKRLESVSRSPIYSHFSETVTGASVIRAYNRSRDFEIISDTKVDANQRSCYPYIISNRWLSIGVEFVGNCVVLFAALFAVIGRSSLNPGLVGLSVSYSLQVTFALNWMIRMMSDLESNIVAVERVKEYSKTETEAPWVVEGSRPPEGWPPRGEVEFRNYSVRYRPGLDLVLRDLSLHVHGGEKVGIVGRTGAGKSSMTLCLFRILEAAKGEIRIDGLNVADIGLHDLRSQLTIIPQDPILFSGTLRMNLDPFGSYSEEDIWWALELSHLHTFVSSQPAGLDFQCSEGGENLSVGQRQLVCLARALLRKSRILVLDEATAAIDLETDNLIQATIRTQFDTCTVLTIAHRLNTIMDYTRVLVLDKGVVAEFDSPANLIAARGIFYGMARDAGLA",Km,[2],3.7 ± 1.0 µM
"ABCC2 (Homo sapiens) (protein, made in house; host or cells: Sf21 insect cells, baculovirus; plasma membrane vesicles) MLEKFCNSTFWNSSFLDSPEADLPLCFEQTVLVWIPLGYLWLLAPWQLLHVYKSRTKRSSTTKLYLAKQVFVGFLLILAAIELALVLTEDSGQATVPAVRYTNPSLYLGTWLLVLLIQYSRQWCVQKNSWFLSLFWILSILCGTFQFQTLIRTLLQGDNSNLAYSCLFFISYGFQILILIFSAFSENNESSNNPSSIASFLSSITYSWYDSIILKGYKRPLTLEDVWEVDEEMKTKTLVSKFETHMKRELQKARRALQRRQEKSSQQNSGARLPGLNKNQSQSQDALVLEDVEKKKKKSGTKKDVPKSWLMKALFKTFYMVLLKSFLLKLVNDIFTFVSPQLLKLLISFASDRDTYLWIGYLCAILLFTAALIQSFCLQCYFQLCFKLGVKVRTAIMASVYKKALTLSNLARKEYTVGETVNLMSVDAQKLMDVTNFMHMLWSSVLQIVLSIFFLWRELGPSVLAGVGVMVLVIPINAILSTKSKTIQVKNMKNKDKRLKIMNEILSGIKILKYFAWEPSFRDQVQNLRKKELKNLLAFSQLQCVVIFVFQLTPVLVSVVTFSVYVLVDSNNILDAQKAFTSITLFNILRFPLSMLPMMISSMLQASVSTERLEKYLGGDDLDTSAIRHDCNFDKAMQFSEASFTWEHDSEATVRDVNLDIMAGQLVAVIGPVGSGKSSLISAMLGEMENVHGHITIKGTTAYVPQQSWIQNGTIKDNILFGTEFNEKRYQQVLEACALLPDLEMLPGGDLAEIGEKGINLSGGQKQRISLARATYQNLDIYLLDDPLSAVDAHVGKHIFNKVLGPNGLLKGKTRLLVTHSMHFLPQVDEIVVLGNGTIVEKGSYSALLAKKGEFAKNLKTFLRHTGPEEEATVHDGSEEEDDDYGLISSVEEIPEDAASITMRRENSFRRTLSRSSRSNGRHLKSLRNSLKTRNVNSLKEDEELVKGQKLIKKEFIETGKVKFSIYLEYLQAIGLFSIFFIILAFVMNSVAFIGSNLWLSAWTSDSKIFNSTDYPASQRDMRVGVYGALGLAQGIFVFIAHFWSAFGFVHASNILHKQLLNNILRAPMRFFDTTPTGRIVNRFAGDISTVDDTLPQSLRSWITCFLGIISTLVMICMATPVFTIIVIPLGIIYVSVQMFYVSTSRQLRRLDSVTRSPIYSHFSETVSGLPVIRAFEHQQRFLKHNEVRIDTNQKCVFSWITSNRWLAIRLELVGNLTVFFSALMMVIYRDTLSGDTVGFVLSNALNITQTLNWLVRMTSEIETNIVAVERITEYTKVENEAPWVTDKRPPPDWPSKGKIQFNNYQVRYRPELDLVLRGITCDIGSMEKIGVVGRTGAGKSSLTNCLFRILEAAGGQIIIDGVDIASIGLHDLREKLTIIPQDPILFSGSLRMNLDPFNNYSDEEIWKALELAHLKSFVASLQLGLSHEVTEAGGNLSIGQRQLLCLGRALLRKSKILVLDEATAAVDLETDNLIQTTIQNEFAHCTVITIAHRLHTIMDSDKVMVLDNGKIIECGSPEELLQIPGPFYFMAKEAGIENVNSTKF",Km,[3],3.3 ± 2.0 µM
